According to PubChem BioAssay AID720587 (Broad Institute, 2013):
Calls of active or inactive are those of the source.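 How the source made its calls: active means fitted curve reaches -35% activity change at a concentration below twice the top valid dose tested; inactive means the rest, including effects opposite to the expected direction.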

Assay: A673 Ewing sarcoma viability loss – cell-based, CellTiter-Glo luminescence, cherry-pick retest, confirmation (AID 720587)
Conditions: A673 Ewing sarcoma viability, CellTiter-Glo ATP luminescence, 72 h; at 8 µM (top of the series)

SMILES	activity change, negative = cytotoxicity
COc1ccc(NS(=O)(=O)c2cc(NC(=O)CNC(=O)c3cccc(OC)c3)ccc2C)cc1	12.2% (inactive)

Same assay, conditions: A673 Ewing sarcoma viability, CellTiter-Glo ATP luminescence, 72 h; at 23.5 µM (top of the series)

SMILES	activity change, negative = cytotoxicity
CCCNC(=O)N1[C@H](C#N)[C@H](c2ccc(C#Cc3cccc(F)c3)cc2)[C@H]1CO	5% (inactive)

Same assay, conditions: A673 Ewing sarcoma viability, CellTiter-Glo ATP luminescence, 72 h; at 26 µM (top of the series)

SMILES	activity change, negative = cytotoxicity
COc1ccc(CCC(C)NCC2CCCCC2)cc1 (centres undefined)	2.42% (inactive)
C=CC[n+]1c(-c2ccc(C)cc2)csc1Nc1ccc(NC(C)=O)cc1	-9.93% (inactive)
OCCN1CCN(C(=S)c2ccc(-c3ccccc3)cc2)CC1	6.18% (inactive)
O=C1C(=O)N(CCS(=O)(=O)c2ccccc2)c2ccccc21	12.4% (inactive)
C/C=C/c1ccc(C2[C@@H]3CN(C(=O)Cc4ccccc4)C[C@H]2N3)cc1 (some centres undefined)	-1.54% (inactive)
O=C(CN1C(=O)C(=O)c2ccccc21)c1ccc(Cl)cc1	-6.17% (inactive)
COc1ccc(N=C(NN)c2ccc3ccccc3n2)cc1	-15.8% (inactive)
CC(=O)c1ccc(N=Nc2ccc(C)cc2)cc1	2.05% (inactive)
CC(=O)Nc1cc(C(=O)NCc2ccco2)ccc1Sc1ccc(F)cc1	8.55% (inactive)
CN(C)C(=O)c1ccc(-c2ccccc2[C@@H]2[C@@H](CO)N(C(=O)C3CC3)[C@H]2C#N)cc1	0.679% (inactive)
N#C[C@@H]1[C@H](c2ccc(C#Cc3ccccc3F)cc2)[C@@H](CO)N1C(=O)c1cccnc1	1.54% (inactive)
COc1ccccc1-c1cn(CC[C@H]2CC[C@@H](NC(=O)C3CCCC3)[C@@H](CO)O2)nn1	6.63% (inactive)
O=C1Nc2ccccc2C1=Nc1ccccc1-c1ccccc1	-7.56% (inactive)
C[C@@H]1CN([C@H](C)CO)S(=O)(=O)c2ccc(C#CC3CC3)cc2O[C@@H]1CN(C)Cc1ccccc1F	-19.6% (inactive)
COc1ccccc1CNC(=O)C[C@@H]1CC[C@H]2[C@@H](COC[C@H](O)CN2C(=O)Nc2ccc(C(F)(F)F)cc2)O1	-9.47% (inactive)
CO[C@H]1CN(C)C(=O)c2cc(NC(=O)NC(C)C)ccc2OC[C@H](C)N(Cc2ccc(-c3ccccn3)cc2)C[C@@H]1C	-4.3% (inactive)
Cc1ccc(N=C2NC(=O)/C(=C\c3cccs3)S2)cc1C	1.74% (inactive)
O=C1CCCC2=C1C(c1ccccn1)Nc1ccc(C(=O)c3ccccc3)cc1N2 (centres undefined)	3.59% (inactive)
Cc1ccc(S(=O)(=O)N(C)C[C@H]2Oc3c(cccc3N(C)C)C(=O)N([C@@H](C)CO)C[C@@H]2C)cc1	-1.85% (inactive)

SMILES	activity change, negative = cytotoxicity
Cc1cc(-c2nc3ccccc3s2)ccc1N	-21.8% (inactive)
C(=N\Nc1ccc2ccccc2n1)/c1ccc2c(c1)OCCO2	-22.2% (inactive)
COC(=O)C[C@@H]1CC[C@@H]2[C@H](COc3ccc(NC(=O)c4cc(F)cc(F)c4)cc3C(=O)N2C)O1	-0.378% (inactive)
O=C1C(=O)N(Cc2cccs2)c2ccccc21	-4.57% (inactive)
COc1ccc(/C=C2/SC(=S)N(CCCC(=O)Nc3ccccc3C(=O)O)C2=O)cc1	5.45% (inactive)
Cc1occc1-c1n[nH]c(=S)n1C	1.91% (inactive)
COc1ccc(C(=O)OCC(=O)Nc2ccc(Cl)c(C(F)(F)F)c2)c(OC)c1OC	2.74% (inactive)
O=c1c2ccccc2oc2ccc(C#CC3(O)CCCCC3)cc12	1.29% (inactive)
O=C1NC(=O)N(CCc2ccc(F)cc2)C(=O)/C1=C/C=C/c1ccccc1	0.109% (inactive)
COc1ccc(/C=C2\SC(=S)N(CCCC(=O)NC3CCCC3)C2=O)cc1OC	-18.4% (inactive)
CC(Oc1cccc(Cl)c1)C(=O)NCCCCc1ccccc1 (centres undefined)	3.26% (inactive)
COc1ccc(Nc2oc(COc3ccccc3OC)nc2C#N)cc1	2.48% (inactive)
CC(NC(=O)c1ccco1)c1nc(-c2ccc(C(C)(C)C)cc2)no1 (centres undefined)	-2.68% (inactive)
COc1ccc(C(=O)CN2C(=O)c3ccccc3S2(=O)=O)cc1	1.43% (inactive)
COc1ccc(C(=O)NCCNc2nc3cc(C)cc(C)c3cc2C#N)c(OC)c1	0.961% (inactive)
O=C(CNC(c1ccccc1)c1ccccc1)Nc1ccccc1-c1ccccc1	-1.93% (inactive)
O=C(O)c1cccc(N/N=C/c2ccc(OC(F)(F)F)cc2)c1	10.4% (inactive)
O=C(C[C@@H]1C[C@H]2c3cc(NC(=O)CC4CC4)ccc3O[C@H]2[C@H](CO)O1)NCc1ccccc1F	-23.9% (inactive)
Cc1ccc(Cl)cc1NC(=O)Cn1cc(C(F)(F)F)cc(Cl)c1=O	10.1% (inactive)

SMILES	activity change, negative = cytotoxicity
O=C(O)c1ccc(N/N=C/c2ccc(OC(=O)c3cccc(Cl)c3)cc2)cc1	-8.45% (inactive)
CCOc1ccccc1CNC(=O)c1ccc(Sc2ccc(Cl)cc2)c(NC(C)=O)c1	-0.342% (inactive)
CCCc1nc2ccc(NC(=O)c3cccs3)cc2c(=O)n1Cc1ccccc1Cl	3.49% (inactive)
COc1ccc2nc(-c3ccc(F)cc3)sc2c1	-14.9% (inactive)
C=CCn1c(O)c(N=Nc2ccccc2)c2ccccc21	7.11% (inactive)
Cc1ccc(C(=O)CN2C(=O)c3ccccc3S2(=O)=O)cc1	11.7% (inactive)
c1ccc(-c2ccc([C@H]3[C@H]4CNC[C@@H]3N4Cc3cc(-c4ccccc4)on3)cc2)cc1	-11.9% (inactive)
N#C[C@H]1[C@H](c2ccc(C#Cc3ccccc3F)cc2)[C@@H](CO)N1C(=O)C1CCOCC1	-1.72% (inactive)
Nc1ccc(Oc2cccc(Oc3ccc(N)cc3)c2)cc1	-3.72% (inactive)
C[C@@H]1CN([C@H](C)CO)C(=O)c2cc(C#CCc3ccccc3)cnc2O[C@@H]1CN(C)Cc1cccc(F)c1	-13.4% (inactive)
O=C1C(=O)N(CCS(=O)(=O)c2ccccc2)c2ccc(Cl)cc21	-5.89% (inactive)
O=C(CCCN1C(=O)/C(=C/c2ccccc2Cl)SC1=S)NNC(=O)c1ccc(Cl)cc1Cl	-0.616% (inactive)
COc1ccc(C/C(N)=N/OC(C)=O)cc1OC	0.039% (inactive)
COc1cc(C(c2c(C)[nH][nH]c2=O)c2c(C)[nH][nH]c2=O)ccc1OC(C)C	-4.73% (inactive)
O=C(O)c1ccc(N/N=C/c2c[nH]c3ccccc23)cc1	-1.6% (inactive)
CCc1ccc(/C=C2\SC(=S)N(CCCC(=O)Nc3cc(C)on3)C2=O)cc1	-3.29% (inactive)
COC(=O)C[C@@H]1CC[C@@H]2[C@H](COc3ccc(NC(=O)c4ccccc4)cc3C(=O)N2C)O1	-5.14% (inactive)
O=C(Cc1nn[nH]n1)c1ccccc1O	0.33% (inactive)
Cc1c(Cl)cnc(NC(=O)COC(=O)c2ccc3ncsc3c2)c1Cl	12.1% (inactive)
